What was measured:
Type in all cases: biochemical
CDK2-cyclin A = CDK2-cyclin A (Homo sapiens, UniProt P24941); test: Kinase assay (radioactive phosphate incorporation), CDK2-cyclin A; conditions: read-out: Kinase Inhibition pIC50 CDK2-cyclin A (converted)
In short: (§1)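 Radiometric filter-binding format: recombinant kinase + substrate, pH 7.4 MOPS buffer with EGTA, DTT, vanadate; 100 μM ATP/[γ-32P]-ATP, 15 mM MgCl2; 30° C; stopped on ice, P81 or GF/C filtration, scintillation read.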

CDK1-cyclin B = CDK1-cyclin B (Homo sapiens, UniProt P06493); test: Kinase assay (radioactive phosphate incorporation), CDK1-cyclin B; conditions: read-out: Kinase Inhibition pIC50 CDK1-cyclin B (converted)
CDK1-cyclin B, sequence (P06493 whole entry): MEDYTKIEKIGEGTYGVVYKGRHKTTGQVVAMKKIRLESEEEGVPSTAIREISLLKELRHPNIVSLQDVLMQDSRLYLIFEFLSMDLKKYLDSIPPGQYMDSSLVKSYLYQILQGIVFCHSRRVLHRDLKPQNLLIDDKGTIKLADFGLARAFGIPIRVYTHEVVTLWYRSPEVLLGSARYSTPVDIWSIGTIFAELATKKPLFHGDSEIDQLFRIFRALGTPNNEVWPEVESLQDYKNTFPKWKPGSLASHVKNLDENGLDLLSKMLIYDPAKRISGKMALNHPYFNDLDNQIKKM
CDK1-cyclin B, sequence (P14635 whole entry partner): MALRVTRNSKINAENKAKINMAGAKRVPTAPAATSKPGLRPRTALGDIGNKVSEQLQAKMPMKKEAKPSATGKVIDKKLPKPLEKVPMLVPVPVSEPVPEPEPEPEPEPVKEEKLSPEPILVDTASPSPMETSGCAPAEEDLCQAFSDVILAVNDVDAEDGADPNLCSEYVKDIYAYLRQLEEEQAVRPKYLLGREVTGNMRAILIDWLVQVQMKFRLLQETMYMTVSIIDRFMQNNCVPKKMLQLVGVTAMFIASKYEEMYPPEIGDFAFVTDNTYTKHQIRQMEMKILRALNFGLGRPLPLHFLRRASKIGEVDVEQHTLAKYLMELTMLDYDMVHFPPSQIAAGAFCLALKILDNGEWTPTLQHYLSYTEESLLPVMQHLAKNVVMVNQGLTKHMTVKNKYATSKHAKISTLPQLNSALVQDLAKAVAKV
In short: as §1

CDK2-cycline E = CDK2-cycline E (Homo sapiens, UniProt P24941); test: Kinase assay (radioactive phosphate incorporation), CDK2-cyclin E; conditions: read-out: Kinase Inhibition pIC50 CDK2-cycline E (converted)
In short: as §1

CDK9/cyclin T1 = CDK9/cyclin T1 (Homo sapiens, UniProt P50750); test: CDK 9 assay (CTD peptide substrate); conditions: read-out: Kinase Inhibition pIC50 CDK9-cyclin T1 (converted)
CDK9/cyclin T1, sequence (P50750 whole entry): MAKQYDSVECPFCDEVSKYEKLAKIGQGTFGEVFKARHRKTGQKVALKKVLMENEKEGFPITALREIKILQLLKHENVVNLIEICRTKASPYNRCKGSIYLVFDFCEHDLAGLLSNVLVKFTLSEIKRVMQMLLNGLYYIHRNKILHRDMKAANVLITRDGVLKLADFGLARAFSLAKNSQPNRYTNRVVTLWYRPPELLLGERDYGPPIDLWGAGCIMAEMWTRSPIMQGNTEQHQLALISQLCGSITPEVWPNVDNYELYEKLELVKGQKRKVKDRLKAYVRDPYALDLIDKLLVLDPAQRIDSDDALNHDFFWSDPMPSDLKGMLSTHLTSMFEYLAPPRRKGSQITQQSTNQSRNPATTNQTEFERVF
CDK9/cyclin T1, sequence (O60563 whole entry partner): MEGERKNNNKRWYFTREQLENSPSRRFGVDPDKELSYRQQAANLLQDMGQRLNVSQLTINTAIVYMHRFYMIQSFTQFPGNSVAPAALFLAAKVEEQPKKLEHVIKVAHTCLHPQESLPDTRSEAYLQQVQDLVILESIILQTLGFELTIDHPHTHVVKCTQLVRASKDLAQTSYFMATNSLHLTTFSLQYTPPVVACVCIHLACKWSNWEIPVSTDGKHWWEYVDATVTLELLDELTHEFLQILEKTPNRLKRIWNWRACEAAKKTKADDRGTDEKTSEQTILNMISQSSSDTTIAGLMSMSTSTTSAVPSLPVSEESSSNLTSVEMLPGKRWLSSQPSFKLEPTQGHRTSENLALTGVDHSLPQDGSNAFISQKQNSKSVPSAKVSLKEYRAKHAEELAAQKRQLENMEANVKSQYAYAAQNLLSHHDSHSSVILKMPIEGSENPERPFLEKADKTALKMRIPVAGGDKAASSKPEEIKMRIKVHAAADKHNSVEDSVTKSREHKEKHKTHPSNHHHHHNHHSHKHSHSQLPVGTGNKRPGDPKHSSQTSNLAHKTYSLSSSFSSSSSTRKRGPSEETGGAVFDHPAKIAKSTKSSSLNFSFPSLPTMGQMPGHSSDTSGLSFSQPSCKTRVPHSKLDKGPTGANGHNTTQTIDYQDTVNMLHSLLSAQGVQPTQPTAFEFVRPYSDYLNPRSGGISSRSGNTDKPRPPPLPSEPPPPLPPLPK
In short: (§2)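 Test compounds were incubated with recombinant human kinase/cyclin complex and CTD peptide substrate for 45 min at 30° C (pH 7.2, 100 μM ATP spiked with 32PγATP, 15 mM MgCl2). Reactions were stopped on ice, avidin was added, and phosphorylated peptide was captured on P81 filters and counted by scintillation.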

GSK3b = GSK3b (Homo sapiens, UniProt P49841); test: Kinase assay (radioactive phosphate incorporation), GSK-3b; conditions: read-out: Kinase Inhibition pIC50 GSK-3b (converted)
GSK3b, sequence (P49841 whole entry, species assumed): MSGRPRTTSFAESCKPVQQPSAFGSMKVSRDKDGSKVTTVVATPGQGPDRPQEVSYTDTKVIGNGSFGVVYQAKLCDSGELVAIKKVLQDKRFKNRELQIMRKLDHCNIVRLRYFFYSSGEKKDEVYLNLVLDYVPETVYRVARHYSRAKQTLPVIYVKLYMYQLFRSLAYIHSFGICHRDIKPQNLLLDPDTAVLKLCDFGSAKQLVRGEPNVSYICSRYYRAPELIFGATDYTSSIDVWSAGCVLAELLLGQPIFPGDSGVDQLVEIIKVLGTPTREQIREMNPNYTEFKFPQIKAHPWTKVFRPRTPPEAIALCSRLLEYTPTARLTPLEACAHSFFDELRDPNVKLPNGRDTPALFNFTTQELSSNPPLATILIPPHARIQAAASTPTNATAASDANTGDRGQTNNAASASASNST
In short: as §1

Aurora A kinase = biological target: T1, Aurora A kinase (Homo sapiens, UniProt O14965); test: Aurora-A (human) kinase assay (Kemptide substrate); conditions: pIC50 is -log(IC50, M); 15 μM ATP; read-out: Kinase Inhibition pIC50 Aurora A kinase (converted)
T1 construct: purchased
T1 sequence (O14965 1-403): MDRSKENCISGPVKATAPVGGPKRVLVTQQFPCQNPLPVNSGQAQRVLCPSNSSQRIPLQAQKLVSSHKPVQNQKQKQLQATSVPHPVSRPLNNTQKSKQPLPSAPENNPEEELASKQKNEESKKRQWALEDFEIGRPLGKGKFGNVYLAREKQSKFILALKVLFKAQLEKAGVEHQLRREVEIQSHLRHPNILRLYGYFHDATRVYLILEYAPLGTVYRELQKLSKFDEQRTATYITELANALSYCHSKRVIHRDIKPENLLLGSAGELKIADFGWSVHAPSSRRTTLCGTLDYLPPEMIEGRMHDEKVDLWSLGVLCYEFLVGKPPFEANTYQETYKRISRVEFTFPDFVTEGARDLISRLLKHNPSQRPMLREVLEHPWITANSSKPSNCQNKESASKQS
In short: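 Radiometric filter-binding assay: commercial aurora-A kinase (5-10 ng) with 200 μM Kemptide in MOPS/EDTA pH 7.0, started with 10 mM Mg acetate and 15 μM ATP plus [γ-33P]-ATP. Incubated 40 min at room temperature, stopped with phosphoric acid, incorporated 33P counted by scintillation.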

CDK7/cyclin H = CDK7/cyclin H (Homo sapiens, UniProt P50613); test: CDK 7 assay (CTD peptide substrate); conditions: read-out: Kinase Inhibition pIC50 CDK7-cyclin H (converted)
CDK7/cyclin H, sequence (P50613 whole entry): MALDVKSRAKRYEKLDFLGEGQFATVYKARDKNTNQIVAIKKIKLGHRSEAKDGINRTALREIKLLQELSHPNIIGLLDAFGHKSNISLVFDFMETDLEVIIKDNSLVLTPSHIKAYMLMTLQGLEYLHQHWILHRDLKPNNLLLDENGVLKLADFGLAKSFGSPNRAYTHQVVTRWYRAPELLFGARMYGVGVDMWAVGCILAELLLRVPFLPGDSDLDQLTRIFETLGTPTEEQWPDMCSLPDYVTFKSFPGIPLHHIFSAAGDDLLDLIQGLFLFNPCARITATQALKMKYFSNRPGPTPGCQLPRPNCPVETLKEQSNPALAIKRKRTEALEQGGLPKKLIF
CDK7/cyclin H, sequence (P51946 whole entry partner): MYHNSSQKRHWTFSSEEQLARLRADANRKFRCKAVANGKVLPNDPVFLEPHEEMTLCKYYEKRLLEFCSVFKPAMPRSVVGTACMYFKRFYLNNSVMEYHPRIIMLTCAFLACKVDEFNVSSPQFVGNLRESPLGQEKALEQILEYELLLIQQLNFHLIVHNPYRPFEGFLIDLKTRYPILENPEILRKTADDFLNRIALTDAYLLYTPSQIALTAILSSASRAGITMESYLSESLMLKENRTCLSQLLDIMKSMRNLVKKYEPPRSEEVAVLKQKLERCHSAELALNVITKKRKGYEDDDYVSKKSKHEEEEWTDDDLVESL
In short: as §2

CDK4-cyclin D1 = CDK4-cyclin D1 (Homo sapiens, UniProt P11802); test: Kinase assay (radioactive phosphate incorporation), CDK4-cyclin D1; conditions: read-out: Kinase Inhibition pIC50 CDK4-cyclin D1 (converted)
CDK4-cyclin D1, sequence (P11802 whole entry): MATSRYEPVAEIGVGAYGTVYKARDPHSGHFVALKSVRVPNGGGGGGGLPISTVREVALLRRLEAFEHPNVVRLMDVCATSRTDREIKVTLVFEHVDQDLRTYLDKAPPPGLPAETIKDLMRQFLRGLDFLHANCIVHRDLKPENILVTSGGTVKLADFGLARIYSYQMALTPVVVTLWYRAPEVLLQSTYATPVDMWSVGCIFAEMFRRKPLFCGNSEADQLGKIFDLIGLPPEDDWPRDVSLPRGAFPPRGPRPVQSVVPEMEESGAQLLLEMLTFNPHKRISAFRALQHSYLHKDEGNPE
CDK4-cyclin D1, sequence (P24385 whole entry partner): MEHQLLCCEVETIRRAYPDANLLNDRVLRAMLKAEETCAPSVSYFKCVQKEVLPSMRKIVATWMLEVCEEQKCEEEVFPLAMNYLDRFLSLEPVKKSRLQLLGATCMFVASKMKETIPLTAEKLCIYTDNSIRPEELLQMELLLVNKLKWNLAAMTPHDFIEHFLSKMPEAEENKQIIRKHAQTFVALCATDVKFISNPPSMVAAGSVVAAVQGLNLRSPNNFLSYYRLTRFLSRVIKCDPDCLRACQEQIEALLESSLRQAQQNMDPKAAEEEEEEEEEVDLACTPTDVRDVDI
In short: as §1

[1] = biological target: T2, Flt3 (FMS-like tyrosine kinase-3) (Homo sapiens, UniProt P36888); test: Kinase assay (radioactive phosphate incorporation), Flt3; conditions: pIC50 is -log(IC50, M), read-out: Kinase Inhibition pIC50 Flt3 (converted)
T2 sequence (P36888 27-993): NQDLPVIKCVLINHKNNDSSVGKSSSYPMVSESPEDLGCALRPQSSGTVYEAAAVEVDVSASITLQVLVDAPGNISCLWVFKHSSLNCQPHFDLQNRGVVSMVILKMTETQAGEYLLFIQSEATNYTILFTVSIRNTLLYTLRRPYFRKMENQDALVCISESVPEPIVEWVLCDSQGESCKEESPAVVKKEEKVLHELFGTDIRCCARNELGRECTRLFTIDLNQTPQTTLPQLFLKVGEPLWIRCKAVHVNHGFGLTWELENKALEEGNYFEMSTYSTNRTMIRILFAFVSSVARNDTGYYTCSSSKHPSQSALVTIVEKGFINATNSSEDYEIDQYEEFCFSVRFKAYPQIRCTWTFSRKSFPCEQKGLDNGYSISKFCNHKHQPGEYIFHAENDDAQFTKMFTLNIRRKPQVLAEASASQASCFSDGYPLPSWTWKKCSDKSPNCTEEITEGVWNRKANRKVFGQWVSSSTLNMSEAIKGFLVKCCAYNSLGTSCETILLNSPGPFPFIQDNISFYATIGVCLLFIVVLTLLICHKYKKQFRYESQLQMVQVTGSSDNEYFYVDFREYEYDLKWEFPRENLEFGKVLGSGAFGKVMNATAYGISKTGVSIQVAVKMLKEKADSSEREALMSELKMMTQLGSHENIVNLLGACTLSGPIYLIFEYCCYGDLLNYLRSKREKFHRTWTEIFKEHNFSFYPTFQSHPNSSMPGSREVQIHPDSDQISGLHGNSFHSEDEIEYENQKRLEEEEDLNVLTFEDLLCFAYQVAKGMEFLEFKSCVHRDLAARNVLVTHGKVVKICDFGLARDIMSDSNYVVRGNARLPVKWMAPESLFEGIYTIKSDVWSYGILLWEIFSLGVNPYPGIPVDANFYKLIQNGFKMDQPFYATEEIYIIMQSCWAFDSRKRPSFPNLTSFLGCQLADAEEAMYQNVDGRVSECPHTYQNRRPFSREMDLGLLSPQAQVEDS
In short: as §1

Structure (SMILES)	IC50 (CDK2-cyclin A)	IC50 (CDK1-cyclin B)	IC50 (CDK2-cycline E)	IC50 (CDK9/cyclin T1)	IC50 (GSK3b)	IC50 (Aurora A kinase)	IC50 (CDK7/cyclin H)	IC50 (CDK4-cyclin D1)	IC50 [1]
CNc1nc(C)c(-c2ccnc(Nc3ccc(CNC(C)=O)cc3)n2)s1 [Compound 14, N-{4-[4-(4-Methyl-2-methylamino-thiazol-5-yl)-pyrimidin-2-ylamino]-benzyl}-acetamide]	631 nM	398 nM	39.8 nM	79.4 nM	631 nM	–	794 nM	126 nM	79.4 nM
Cc1nc(C)c(-c2ccnc(Nc3cccc(N4CCNCC4)c3)n2)s1 [Compound 8, [4-(2,4-Dimethyl-thiazol-5-yl)-pyrimidin-2-yl]-(3-piperazin-1-yl-phenyl)-amine]	5010 nM	5010 nM	2000 nM	501 nM	12600 nM	39800 nM	2000 nM	2510 nM	50.1 nM
CCNc1nc(C)c(-c2ccnc(Nc3ccc(S(=O)(=O)NCCO)cc3)n2)s1 [Compound 65, 4-[4-(2-Ethylamino-4-methyl-thiazol-5-yl)-pyrimidin-2-ylamino]-N-(2-hydroxy-ethyl)-benzenesulfonamide]	20 nM	50.1 nM	15.8 nM	–	316 nM	251 nM	200 nM	12.6 nM	200 nM
CNc1nc(C)c(-c2ccnc(Nc3ccc(S(=O)(=O)NCCO)cc3)n2)s1 [Compound 67, N-(2-Hydroxy-ethyl)-4-[4-(4-methyl-2-methylamino-thiazol-5-yl)-pyrimidin-2-ylamino]-benzenesulfonamide]	15.8 nM	50.1 nM	6.31 nM	–	1260 nM	316 nM	3980 nM	501 nM	316 nM
CCNc1nc(C)c(-c2ccnc(Nc3cccc(S(=O)(=O)NCCOC)c3)n2)s1 [Compound 53, 3-[4-(2-Ethylamino-4-methyl-thiazol-5-yl)-pyrimidin-2-ylamino]-N-(2-methoxy-ethyl)-benzenesulfonamide]	2000 nM	2000 nM	398 nM	100 nM	501 nM	158 nM	158 nM	158 nM	200 nM
Cc1nc(C)c(-c2ccnc(Nc3ccc(S(=O)(=O)NCCO)cc3)n2)s1 [Compound 69, 4-[4-(2,4-Dimethyl-thiazol-5-yl)-pyrimidin-2-ylamino]-N-(2-hydroxy-ethyl)-benzenesulfonamide]	20 nM	10 nM	10 nM	398 nM	1580 nM	79.4 nM	2000 nM	1000 nM	–
CNc1nc(C)c(-c2ccnc(Nc3ccc(S(C)(=O)=O)cc3)n2)s1 [Compound 20, (4-Methanesulfonyl-phenyl)-[4-(4-methyl-2-methylamino-thiazol-5-yl)-pyrimidin-2-yl]-amine]	15.8 nM	158 nM	2.51 nM	63.1 nM	316 nM	–	3980 nM	2510 nM	316 nM

Further lines, results first:

IC50 (CDK2-cyclin A)	IC50 (CDK1-cyclin B)	IC50 (CDK2-cycline E)	IC50 (CDK9/cyclin T1)	IC50 (GSK3b)	IC50 (Aurora A kinase)	IC50 (CDK7/cyclin H)	IC50 (CDK4-cyclin D1)	IC50 [1]	Structure (SMILES)
794 nM	1000 nM	63.1 nM	12.6 nM	251 nM	79.4 nM	251 nM	39.8 nM	158 nM	CNc1nc(C)c(-c2ccnc(Nc3cccc(S(=O)(=O)NC)c3)n2)s1 [Compound 21, N-Methyl-3-[4-(4-methyl-2-methylamino-thiazol-5-yl)-pyrimidin-2-ylamino]-benzenesulfonamide]
1000 nM	1260 nM	251 nM	126 nM	316 nM	79.4 nM	794 nM	2510 nM	1000 nM	CNS(=O)(=O)c1cccc(Nc2nccc(-c3sc(N)nc3C)n2)c1 [Compound 26, 3-[4-(2-Amino-4-methyl-thiazol-5-yl)-pyrimidin-2-ylamino]-N-methyl-benzenesulfonamide]
1000 nM	1000 nM	126 nM	25.1 nM	316 nM	100 nM	398 nM	126 nM	158 nM	Cc1nc(N)sc1-c1ccnc(Nc2cccc(S(=O)(=O)NCCO)c2)n1 [Compound 77, 3-[4-(2-Amino-4-methyl-thiazol-5-yl)-pyrimidin-2-ylamino]-N-(2-hydroxy-ethyl)-benzenesulfonamide]
200 nM	1260 nM	158 nM	12.6 nM	200 nM	31.6 nM	251 nM	158 nM	50.1 nM	CCNc1nc(C)c(-c2ccnc(Nc3cccc(CNS(C)(=O)=O)c3)n2)s1 [Compound 5, N-{3-[4-(2-Ethylamino-4-methyl-thiazol-5-yl)-pyrimidin-2-ylamino]-benzyl}-methanesulfonamide]
1580 nM	2000 nM	794 nM	15.8 nM	2510 nM	–	126 nM	251 nM	158 nM	CCNc1nc(C)c(-c2ccnc(Nc3cccc(S(N)(=O)=O)c3)n2)s1 [Compound 18, 3-[4-(2-Ethylamino-4-methyl-thiazol-5-yl)-pyrimidin-2-ylamino]-benzenesulfonamide]
501 nM	631 nM	63.1 nM	100 nM	2000 nM	251 nM	200 nM	631 nM	794 nM	Cc1nc(N)sc1-c1ccnc(Nc2cccc(CNS(=O)(=O)C(F)(F)F)c2)n1 [Compound 12, N-{3-[4-(2-Amino-4-methyl-thiazol-5-yl)-pyrimidin-2-ylamino]-benzyl}-C,C,C-trifluoro-methanesulfonamide]
1580 nM	1580 nM	158 nM	1260 nM	1580 nM	200 nM	631 nM	1260 nM	–	Cc1nc(C)c(-c2ccnc(Nc3cccc(CNS(=O)(=O)C(F)(F)F)c3)n2)s1 [Compound 11, N-{3-[4-(2,4-Dimethyl-thiazol-5-yl)-pyrimidin-2-ylamino]-benzyl}-C,C,C-trifluoro-methanesulfonamide]
